The results in this text go back to patent US9763942B2, “Serine/threonine kinase inhibitors” (Array BioPharma Inc., priority 2013, dated 2017).

T1 sequence (P28482 8-360): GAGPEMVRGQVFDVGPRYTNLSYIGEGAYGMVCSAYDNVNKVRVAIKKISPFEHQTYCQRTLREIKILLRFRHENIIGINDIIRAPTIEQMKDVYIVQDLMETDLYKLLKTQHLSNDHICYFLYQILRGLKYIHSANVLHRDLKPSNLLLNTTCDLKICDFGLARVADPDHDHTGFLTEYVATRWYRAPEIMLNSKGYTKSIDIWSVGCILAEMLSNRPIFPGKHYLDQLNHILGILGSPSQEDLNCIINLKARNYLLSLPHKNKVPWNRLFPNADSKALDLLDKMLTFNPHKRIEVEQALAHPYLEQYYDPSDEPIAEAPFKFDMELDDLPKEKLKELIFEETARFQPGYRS

The experiment concerns the target T1, human ERK-2 (Mitogen Activated Kinase 1) (Homo sapiens, UniProt P28482).
T1 construct: n-terminal 6-His fusion protein in E. coli and corresponding to aa 8-360; 6-His (N); made in house; host or cells: E. coli
The experiment is described as follows: ERK-2 Enzymatic Assay. Type of experiment: biochemical. Conditions: ERK-2 enzymatic assay; read-out: IC50. From the text:
Table 1 contains representative data for Examples disclosed herein.
For the molecule `COc1ccc(Cn2nnc3cc(-c4ccnc(N[C@H]5CCOC[C@H]5F)n4)ccc32)cc1F` [Example 7, 4-(1-(3-fluoro-4-methoxybenzyl)-1H-benzo[d][1,2,3]triazol-5-yl)-N-((3S,4S)-3-fluorotetrahydro-2H-pyran-4-yl)pyrimidin-2-amine], the IC50 was < 100 nM.

On to `COc1ccc(Cn2nnc3cc(-c4ccnc(NCC5COC5)n4)ccc32)cc1F` [Example 17, 4-(1-(3-fluoro-4-methoxybenzyl)-1H-benzo[d][1,2,3]triazol-5-yl)-N-(oxetan-3-ylrnethyl)pyrimidin-2-amine], for which the IC50 was < 100 nM.

Turning to `COc1ccc(Cn2nnc3cc(-c4ccnc(Nc5ccnn5C)n4)ccc32)cc1` [Example 65, 4-(1-(4-methoxybenzyl)-1H-benzo[d][1,2,3]triazol-5-yl)-N-(1-methyl-1H-pyrazol-5-yl)pyrimidin-2-amine], the half-inhibitory concentration (IC50) was < 100 nM.

`COc1ccc(Cn2nnc3cc(-c4ccnc(NC5CCOCC5)n4)ccc32)cc1F` [Example 110, 4-(1-(3-fluoro-4-methoxybenzyl)-1H-benzo[d][1,2,3]triazol-5-yl)-N-(tetrahydro-2H-pyran-4-yl)pyrimidin-2-amine]: the IC50 is < 100 nM.

Take `Cn1nccc1Nc1nccc(-c2cnc3c(c2)nnn3Cc2ccc(Cl)c(F)c2)n1` [Example 119, 4-(3-(4-chloro-3-fluorobenzyl)-3H-(1,2,3]triazolo[4,5-b]pyridin-6-yl)-N-(1-methyl-1H-pyrazol-5-yl)pyrimidin-2-amine]: the IC50 is < 100 nM.

On to `CCOCC1(Cn2nnc3cc(-c4ccnc(Nc5ccnn5C)n4)ccc32)CC1` [Example 45, 4-(1-((1-(ethoxymethyl)cyclopropyl)methyl)-1H-benzo[d][1,2,3]triazol-5-yl)-N-(1-methyl-1H-pyrazol-5-yl)pyrimidin-2-amine], for which the IC50 was < 100 nM.

Regarding `CCN1C[C@@H](n2nnc3cc(-c4ccnc(Nc5ccnn5C)n4)ccc32)[C@H](c2ccc(F)c(F)c2)C1` [Example 77, 4-(1-((3S,4R)-4-(3,4-difluorophenyl)-1-ethylpyrrolidin-3-yl)-1H-benzo[d][1,2,3]triazol-5-yl)-N-(1-methyl-1H-pyrazol-5-yl)pyrimidin-2-amine], the IC50 is < 100 nM.

With `COc1ccc(Cn2nnc3cc(-c4ccnc(NCC(C)(C)O)n4)ccc32)cc1F` [Example 18, 1-((4-(1-(3-fluoro-4-methoxybenzyl)-1H-benzo[d][1,2,3]triazol-5-yl)pyrimidin-2-yl)amino)-2-methylpropan-2-ol], the IC50 is < 100 nM.

Turning to `CCC(C)Cn1nnc2cc(-c3ccnc(Nc4cnn(C)c4)n3)ccc21` (stereo not drawn) [Example 96, N-(1-methyl-1H-pyrazol-4-yl)-4-(1-(2-methylbutyl)-1H-benzo[d][1,2,3]triazol-5-yl)pyrimidin-2-amine], the IC50 was < 100 nM.

For the molecule `COc1ccc(Cn2nnc3cc(-c4ccnc(NCC5CC5)n4)ccc32)cc1F` [Example 14, N-(cyclopropylmethyl)-4-(1-(3-fluoro-4-methoxybenzyl)-1H-benzo[d][1,2,3]triazol-5-yl)pyrimidin-2-amine], the IC50 is < 100 nM.

`CCC(C)Cn1nnc2cc(-c3ccnc(Nc4cnn(C)n4)n3)ccc21` (stereo not drawn) [Example 100, N-(2-methyl-2H-1,2,3-triazol-4-yl)-4-(1-(2-methylbutyl)-1H-benzo[d][1,2,3]triazol-5-yl)pyrimidin-2-amine]: the IC50 was < 100 nM.

As for `CN1C[C@@H](n2nnc3cc(-c4ccnc(Nc5ccnn5C)n4)ccc32)[C@H](c2cc(F)cc(F)c2)C1` [Example 76, 4-(1-((3S,4R)-4-(3,5-difluorophenyl)-1-methylpyrrolidin-3-yl)-1H-benzo[d][1,2,3]triazol-5-yl)-N-(1-methyl-1H-pyrazol-5-yl)pyrimidin-2-amine], the IC50 was < 100 nM.

Take `Fc1cccc(Cn2nnc3cc(-c4ccnc(NC5CCOCC5)n4)ccc32)c1` [Example 107, 4-(1-(3-fluorobenzyl)-1H-benzo[d][1,2,3]triazol-5-yl)-N-(tetrahydro-2H-pyran-4-yl)pyrimidin-2-amine]: the IC50 was < 100 nM.

With `Cn1nccc1Nc1nccc(-c2ccc3c(c2)nnn3Cc2ccc(Cl)c(F)c2)n1` [Example 108, 4-(1-(4-chloro-3-fluorobenzyl)-1H-benzo[d][1,2,3]triazol-5-yl)-N-(1-methyl-1H-pyrazol-5-yl)pyrimidin-2-amine], the IC50 is < 100 nM.

For the molecule `Cn1nccc1Nc1nccc(-c2ccc3c(c2)nnn3Cc2ccc(F)c(Cl)c2)n1` [Example 125, 4-(1-(3-chloro-4-fluorobenzyl)-1H-benzo[d][1,2,3]triazol-5-yl)-N-(1-methyl-1H-pyrazol-5-yl)pyrimidin-2-amine], the IC50 is < 100 nM.

Turning to `COc1ccc(Cn2nnc3cc(-c4ccnc(NC5CCC5)n4)ccc32)cc1F` [Example 12, N-cyclobutyl-4-(1-(3-fluoro-4-methoxybenzyl)-1H-benzo[d][1,2,3]triazol-5-yl)pyrimidin-2-amine], the IC50 is < 100 nM.

As to `COc1cccnc1Cn1nnc2cc(-c3ccnc(Nc4ccnn4C)n3)ccc21` [Example 68, 4-(1-((3-methoxypyridin-2-yl)methyl)-1H-benzo[d][1,2,3]triazol-5-yl)-N-(1-methyl-1H-pyrazol-5-yl)pyrimidin-2-amine], the IC50 is < 100 nM.

Turning to `Cn1nccc1Nc1nccc(-c2ccc3c(c2)nnn3C(CN2CCCC2)c2ccc(Cl)c(F)c2)n1` (stereo not drawn) [Example 92, 4-(1-(1-(4-chloro-3-fluorophenyl)-2-(pyrrolidin-1-yl)ethyl)-1H-benzo[d][1,2,3]triazol-5-yl)-N-(1-methyl-1H-pyrazol-5-yl)pyrimidin-2-amine], the IC50 was < 100 nM.

Turning to `CC(C)Cn1nnc2cc(-c3ccnc(Nc4ccnn4C)n3)cnc21` [Example 114, 4-(3-isobutyl-3H-[1,2,3]triazolo[4,5-b]pyridin-6-yl)-N-(1-methyl-1H-pyrazol-5-yl)pyrimidin-2-amine], the IC50 is < 100 nM.

In the case of `COC(C)(C)Cn1nnc2cc(-c3ccnc(Nc4ccnn4C)n3)ccc21` [Example 44, 4-(1-(2-methoxy-2-methylpropyl)-1H-benzo[d][1,2,3]triazol-5-yl)-N-(1-methyl-1H-pyrazol-5-yl)pyrimidin-2-amine], the IC50 was < 100 nM.

Turning to `Cn1nccc1Nc1nccc(-c2ccc3c(c2)nnn3CCc2ccc(Cl)cc2)n1` [Example 3, 4-(1-(4-chlorophenethyl)-1H-benzo[d][1,2,3]triazol-5-yl)-N-(1-methyl-1H-pyrazol-5-yl)pyrimidin-2-amine], the IC50 is < 100 nM.

In the case of `COC(C)Cn1nnc2cc(-c3ccnc(Nc4ccnn4C)n3)ccc21` (stereo not drawn) [Example 30, 4-(1-(2-methoxypropyl)-1H-benzo[d][1,2,3]triazol-5-yl)-N-(1-methyl-1H-pyrazol-5-yl)pyrimidin-2-amine], the IC50 was < 100 nM.

In the case of `CCC(C)Cn1nnc2cc(-c3ccnc(N[C@@H](C)CO)n3)ccc21` (stereo partly drawn) [Example 98, (2S)2-((4-(1-(2-methylbutyl)-1H-benzo[d][1,2,3]triazol-5-yl)pyrimidin-2-yl)amino)propan-1-ol], the IC50 is < 100 nM.

Take `COCCN1C[C@@H](n2nnc3cc(-c4ccnc(Nc5ccnn5C)n4)ccc32)[C@H](c2ccc(F)cc2)C1` [Example 87, 4-(1-((3S,4R)-4-(4-fluorophenyl)-1-(2-methoxyethyl)pyrrolidin-3-yl)-1H-benzo[d][1,2,3]triazol-5-yl)-N-(1-methyl-1H-pyrazol-5-yl)pyrimidin-2-amine]: the IC50 was < 100 nM.

As to `Cn1nccc1Nc1nccc(-c2ccc3c(c2)nnn3Cc2cccc(C(F)(F)F)n2)n1` [Example 52, N-(1-methyl-1H-pyrazol-5-yl)-4-(1-((6-(trifluoromethyl)pyridin-2-yl)methyl)-1H-benzo[d][1,2,3]triazol-5-yl)pyrimidin-2-amine], the concentration for half-maximal inhibition (IC50) was < 100 nM.

As for `Cn1ccc(Cn2nnc3cc(-c4ccnc(Nc5ccnn5C)n4)ccc32)n1` [Example 32, 4-(1-((1-methyl-1H-pyrazol-3-yl)methyl)-1H-benzo[d][1,2,3]triazol-5-yl)-N-(1-methyl-1H-pyrazol-5-yl)pyrimidin-2-amine], the IC50 was < 100 nM.

In the case of `Cn1nccc1Nc1nccc(-c2ccc3c(c2)nnn3[C@H](CO)c2ccc(Cl)c(F)c2)n1` [Example 93, (S)-2-(4-chloro-3-fluorophenyl)-2-(5-(2-((1-methyl-1H--pyrazol-5-yl)amino)pyrimidin-4-yl)-1H-benzo[d][1,2,3]triazol-1-yl)ethanol], the IC50 is < 100 nM.

On to `CC(O)CCn1nnc2cc(-c3ccnc(Nc4ccnn4C)n3)ccc21` (stereo not drawn) [Example 41, 4-(5-(2-((1-methyl-1H-pyrazol-5-yl)amino)pyrimidin-4-yl)-1H-benzo[d][1,2,3]triazol-1-yl)butan-2-ol], for which the IC50 was < 100 nM.

For `Cn1nccc1Nc1nccc(-c2ccc3c(c2)nnn3CC2CCCC2)n1` [Example 29, 4-(1-(cyclopentylmethyl)-1H-benzo[d][1,2,3]triazol-5-yl)-N-(1-methyl-1H-pyrazol-5-yl)pyrimidin-2-amine], the IC50 was < 100 nM.

On to `Cn1nccc1Nc1nccc(-c2ccc3c(c2)nnn3CCCF)n1` [Example 40, 4-(1-(3-fluoropropyl)-1H-benzo[d][1,2,3]triazol-5-yl)-N-(1-methyl-1H-pyrazol-5-yl)pyrimidin-2-amine], for which the IC50 was < 100 nM.

`CC(C)OCCCn1nnc2cc(-c3ccnc(Nc4ccnn4C)n3)ccc21` [Example 102, 4-(1-(3-isopropoxypropyl)-1H-benzo[d][1,2,3]triazol-5-yl)-N-(1-methyl-1H-pyrazol-5-yl)pyrimidin-2-amine]: the IC50 is < 100 nM.

With `CN1CC(n2nnc3cc(-c4ccnc(Nc5cnn(C)c5)n4)ccc32)[C@H](c2ccc(F)cc2F)C1` (stereo partly drawn) [Example 73, 4-(1-((3S,4R)-4-(2,4-difluorophenyl)-1-methylpyrrolidin-3-yl)-1H-benzo[d][1,2,3]triazol-5-yl)-N(1-methyl-1H-pyrazol-4-yl)pyrimidin-2-amine], the IC50 was < 100 nM.

For `Cn1nccc1Nc1nccc(-c2cnc3c(c2)nnn3CCc2cccc(Cl)c2)n1` [Example 118, 4-(3-(3-chlorophenethyl)-3H-[1,2,3]triazolo[4,5-b]pyridin-6-yl)-N-(1-methyl-1H-pyrazol-5-yl)pyrimidin-2-amine], the IC50 was < 100 nM.
